Data published in paper PMC12147761 (Journal of medicinal chemistry, 2025).
pIC50: −log10 of the molar value. Read-outs that look alike come from different tables or passages of the source.

Key:
[1] = system: phosphorylation of RNA polymerase II at Ser2; assay: Washout experiment, RNA polymerase II Ser2 phosphorylation (immunoblot); format: cell-based, human; conditions: VCaP cells; YJZ5118 100 nM
Protocol: (§1) The previously reported reversible inhibitor 10 was included for comparison. VCaP cells were treated with the compounds for 6 h, after which the compounds were removed, and the cells were cultured in compound-free media for 5 days.
Generally, after incubation with the compounds for the indicated time, the tested cells were washed by cold PBS buffer (Gibco) and lysed with RIPA buffer (ThermoFisher Scientific) supplemented with cOmplete protease inhibitor cocktail tablets (Sigma-Aldrich). The cell lysate was treated with ultrasonic for 20s, following a centrifugation of 14000 rpm at 4°C for 10 min. The protein concentration was measured by BCA protein assay (DC Protein Assay, BIO-RAD). An equal amount of protein was loaded to 4–12% Bis-Tris gels and underwent SDS-PAGE electrophoresis at 120 V for 90 min. The proteins were transferred to a nitrocellulose (NC) membrane (Thermo Scientific) and the membranes were blocked in 5% milk buffer at room temperature for 1h, followed by incubating with primary antibody at the recommended dilution at 4°C for overnight. The membranes were washed by PBST for three times and incubated with anti-rabbit or anti-mouse HRP-conjugated secondary antibody for 1h at room temperature, after which the membranes were imaged by Odyssey CLx Imager (LiCOR Biosciences).

CDK9/CycT1 = biological target: T1, CDK9/CycT1 (Homo sapiens, UniProt P50750); assay: CDK family panel, ADP-Glo; format: biochemical
T1 construct: ICE Bioscience Inc. (assay service)
T1 sequence (P50750 whole entry, species assumed): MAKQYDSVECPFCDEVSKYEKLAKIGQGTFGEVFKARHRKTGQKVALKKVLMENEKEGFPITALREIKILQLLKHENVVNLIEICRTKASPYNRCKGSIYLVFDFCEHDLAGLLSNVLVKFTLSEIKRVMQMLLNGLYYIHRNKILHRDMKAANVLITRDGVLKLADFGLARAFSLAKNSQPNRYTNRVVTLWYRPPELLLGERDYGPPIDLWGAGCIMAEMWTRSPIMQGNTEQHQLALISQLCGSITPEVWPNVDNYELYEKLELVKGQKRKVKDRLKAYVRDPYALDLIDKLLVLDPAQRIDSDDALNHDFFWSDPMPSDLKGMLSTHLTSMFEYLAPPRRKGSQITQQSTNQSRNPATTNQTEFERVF
T1 sequence (O60563 whole entry partner, species assumed): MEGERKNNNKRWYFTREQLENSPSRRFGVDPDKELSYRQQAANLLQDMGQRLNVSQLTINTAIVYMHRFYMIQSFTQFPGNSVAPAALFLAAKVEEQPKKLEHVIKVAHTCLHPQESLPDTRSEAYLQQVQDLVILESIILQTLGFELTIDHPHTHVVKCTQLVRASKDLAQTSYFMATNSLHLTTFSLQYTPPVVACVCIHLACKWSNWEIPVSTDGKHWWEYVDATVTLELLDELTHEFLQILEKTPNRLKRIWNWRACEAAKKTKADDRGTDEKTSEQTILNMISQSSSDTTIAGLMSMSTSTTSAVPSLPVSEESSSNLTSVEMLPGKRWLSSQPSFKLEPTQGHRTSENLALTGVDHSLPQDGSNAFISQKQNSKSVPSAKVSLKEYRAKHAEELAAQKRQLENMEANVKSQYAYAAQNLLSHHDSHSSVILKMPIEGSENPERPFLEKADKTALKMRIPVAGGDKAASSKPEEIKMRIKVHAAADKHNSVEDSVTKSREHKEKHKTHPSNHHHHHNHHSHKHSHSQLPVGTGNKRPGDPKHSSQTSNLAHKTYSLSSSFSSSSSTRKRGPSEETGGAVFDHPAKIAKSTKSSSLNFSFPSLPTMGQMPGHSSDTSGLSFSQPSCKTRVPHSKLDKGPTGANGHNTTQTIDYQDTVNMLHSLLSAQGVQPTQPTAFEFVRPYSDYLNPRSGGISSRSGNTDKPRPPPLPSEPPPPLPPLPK
Protocol: (§3) All the kinase activity were performed using an ADP-Glo kinase assay by ICE Bioscience Inc. (Beijing, China).

CDK16/CycY = biological target: T2, CDK16/CycY (Homo sapiens, UniProt Q00536); assay: CDK family panel, ADP-Glo; format: biochemical
T2 construct: ICE Bioscience Inc. (assay service)
T2 sequence (Q00536 whole entry, species assumed): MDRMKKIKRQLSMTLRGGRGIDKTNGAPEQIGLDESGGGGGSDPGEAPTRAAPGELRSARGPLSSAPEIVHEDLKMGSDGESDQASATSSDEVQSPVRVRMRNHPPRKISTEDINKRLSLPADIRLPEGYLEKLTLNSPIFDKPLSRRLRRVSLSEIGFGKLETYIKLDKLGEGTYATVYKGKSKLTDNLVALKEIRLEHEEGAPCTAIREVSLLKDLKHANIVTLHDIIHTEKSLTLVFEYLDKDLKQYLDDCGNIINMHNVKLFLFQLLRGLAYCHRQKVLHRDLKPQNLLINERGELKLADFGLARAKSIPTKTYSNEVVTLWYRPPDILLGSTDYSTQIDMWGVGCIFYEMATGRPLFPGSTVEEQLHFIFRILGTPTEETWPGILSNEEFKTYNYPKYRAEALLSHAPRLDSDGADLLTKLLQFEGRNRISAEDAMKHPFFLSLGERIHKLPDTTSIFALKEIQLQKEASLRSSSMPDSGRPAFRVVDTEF
T2 sequence (Q8ND76 whole entry partner, species assumed): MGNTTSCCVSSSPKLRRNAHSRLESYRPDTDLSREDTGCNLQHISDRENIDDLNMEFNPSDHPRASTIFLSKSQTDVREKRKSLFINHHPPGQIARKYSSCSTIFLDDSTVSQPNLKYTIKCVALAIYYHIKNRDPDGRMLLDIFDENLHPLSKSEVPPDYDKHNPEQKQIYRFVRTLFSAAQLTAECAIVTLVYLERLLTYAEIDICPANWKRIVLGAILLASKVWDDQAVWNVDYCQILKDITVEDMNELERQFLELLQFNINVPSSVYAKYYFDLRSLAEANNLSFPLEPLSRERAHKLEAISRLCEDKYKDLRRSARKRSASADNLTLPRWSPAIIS
Protocol: as §3

TAOK3 = biological target: T3, TAOK3 (Homo sapiens, UniProt Q9H2K8); assay: ADP-Glo assay, TAOK3; format: biochemical; conditions: read-out: IC50 against TAOK3
T3 construct: ICE Bioscience Inc. (assay service)
T3 sequence (Q9H2K8 whole entry, species assumed): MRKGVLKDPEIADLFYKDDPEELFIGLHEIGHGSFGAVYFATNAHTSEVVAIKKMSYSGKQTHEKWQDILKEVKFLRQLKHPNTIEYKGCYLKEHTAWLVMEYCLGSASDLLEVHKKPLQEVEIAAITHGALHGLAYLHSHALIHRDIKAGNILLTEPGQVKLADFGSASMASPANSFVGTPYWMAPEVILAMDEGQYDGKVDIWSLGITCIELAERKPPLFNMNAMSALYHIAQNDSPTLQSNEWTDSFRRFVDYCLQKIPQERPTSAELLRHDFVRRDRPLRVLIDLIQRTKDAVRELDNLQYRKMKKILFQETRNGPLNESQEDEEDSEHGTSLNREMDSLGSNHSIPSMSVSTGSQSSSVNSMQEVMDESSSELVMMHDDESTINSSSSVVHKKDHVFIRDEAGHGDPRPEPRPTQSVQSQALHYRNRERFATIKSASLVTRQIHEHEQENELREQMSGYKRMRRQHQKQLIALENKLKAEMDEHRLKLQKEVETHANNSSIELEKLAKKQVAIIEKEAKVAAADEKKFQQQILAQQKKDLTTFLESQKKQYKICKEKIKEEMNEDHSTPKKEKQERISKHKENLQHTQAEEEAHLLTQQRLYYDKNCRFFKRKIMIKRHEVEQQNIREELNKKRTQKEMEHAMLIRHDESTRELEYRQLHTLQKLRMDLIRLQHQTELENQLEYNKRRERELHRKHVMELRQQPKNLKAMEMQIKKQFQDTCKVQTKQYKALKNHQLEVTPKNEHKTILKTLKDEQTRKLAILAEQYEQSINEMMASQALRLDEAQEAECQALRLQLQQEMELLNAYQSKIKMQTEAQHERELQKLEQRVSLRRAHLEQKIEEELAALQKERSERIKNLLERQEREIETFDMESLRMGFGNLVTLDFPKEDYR

CDK6/CycD1 = biological target: T4, CDK6/CycD1 (Homo sapiens, UniProt Q00534); assay: CDK family panel, ADP-Glo; format: biochemical
T4 construct: ICE Bioscience Inc. (assay service)
T4 sequence (Q00534 whole entry, species assumed): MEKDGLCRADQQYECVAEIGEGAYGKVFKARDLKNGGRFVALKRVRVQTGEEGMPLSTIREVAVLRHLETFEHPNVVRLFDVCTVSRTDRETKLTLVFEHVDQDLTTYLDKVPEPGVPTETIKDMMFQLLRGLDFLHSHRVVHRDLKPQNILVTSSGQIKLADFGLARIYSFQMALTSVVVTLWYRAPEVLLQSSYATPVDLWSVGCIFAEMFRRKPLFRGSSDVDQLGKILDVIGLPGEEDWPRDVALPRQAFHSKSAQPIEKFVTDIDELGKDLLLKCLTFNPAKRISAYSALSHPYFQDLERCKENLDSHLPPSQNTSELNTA
T4 sequence (P24385 whole entry partner, species assumed): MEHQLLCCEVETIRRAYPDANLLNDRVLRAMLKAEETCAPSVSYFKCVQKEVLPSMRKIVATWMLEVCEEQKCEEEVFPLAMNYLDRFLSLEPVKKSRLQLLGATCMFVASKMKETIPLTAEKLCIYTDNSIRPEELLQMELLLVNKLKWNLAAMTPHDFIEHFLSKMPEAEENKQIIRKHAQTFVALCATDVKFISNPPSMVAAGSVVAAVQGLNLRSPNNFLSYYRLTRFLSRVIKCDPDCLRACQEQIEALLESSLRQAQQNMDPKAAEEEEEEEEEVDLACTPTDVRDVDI
Protocol: (§4) All the kinase activity were performed using an ADP-Glo kinase assay by ICE Bioscience Inc. (Beijing, China). Kinome selectivity profiles (KINOMEscan profiling) and Kd detection were performed by Eurofins DiscoveryX Corporation (San Diego, CA, USA).

VCaP cells [2] = assay: Washout experiment, cell growth; format: cell-based, human; conditions: VCaP cells treated 6 h, compound removed, 5 days in compound-free media
Protocol: as §1

[3] = Pharmacokinetics study in mice; format: in vivo, ICR mice; conditions: for AUC(0-t) / Cmax / Tmax / clearance / half-life / bioavailability: both sexes, ICR, mouse, plasma
CDK2/CycE1 = biological target: T5, CDK2/CycE1 (Homo sapiens, UniProt P24941); assay: CDK family panel, ADP-Glo; format: biochemical
T5 construct: ICE Bioscience Inc. (assay service)
Protocol: as §3

CDK15/CycY = biological target: T6, CDK15/CycY (Homo sapiens, UniProt Q96Q40); assay: CDK family panel, ADP-Glo; format: biochemical
T6 construct: ICE Bioscience Inc. (assay service)
T6 sequence (Q96Q40 whole entry, species assumed): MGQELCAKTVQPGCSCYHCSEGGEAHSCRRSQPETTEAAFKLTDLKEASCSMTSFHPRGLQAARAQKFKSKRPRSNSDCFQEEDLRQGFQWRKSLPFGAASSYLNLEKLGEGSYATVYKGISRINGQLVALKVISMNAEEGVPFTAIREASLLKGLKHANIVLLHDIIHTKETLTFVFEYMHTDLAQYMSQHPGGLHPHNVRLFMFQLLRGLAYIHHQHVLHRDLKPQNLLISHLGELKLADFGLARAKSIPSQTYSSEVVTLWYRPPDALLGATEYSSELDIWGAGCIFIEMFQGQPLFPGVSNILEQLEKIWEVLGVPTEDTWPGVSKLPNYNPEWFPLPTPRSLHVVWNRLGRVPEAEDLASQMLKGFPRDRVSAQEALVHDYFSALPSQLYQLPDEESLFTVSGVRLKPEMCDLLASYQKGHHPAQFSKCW
T6 sequence (Q8ND76 whole entry partner, species assumed): as the sequence (Q8ND76 whole entry partner, species assumed) above
Protocol: as §3

[4] = system: VCaP prostate cancer cells; assay: Cell proliferation assay (CellTiter-Glo), VCaP; format: cell-based, human; conditions: cell growth inhibition, 5 days, CellTiter-Glo
Protocol: The kinase inhibitory activities of the compounds against CDK12 and CDK13 were preliminarily evaluated using the ADP-Glo kinase assay. Cell growth inhibition was determined in VCaP prostate cancer cells, which were characterized as being sensitive to CDK12/13 inhibition.[14]
(§2) Cells were seeded in 96-well plates and incubated at 37 °C and 5% CO2. After overnight incubation, serial dilutions of tested compounds were added to the plate. The assay was tested with Cell Titer-Glo (Promega) after 5 days. The luminescence signal was detected by the Infinite M1000 Pro plate reader (Tecan), and the IC50 values were calculated by GraphPad Prism 10.

CDK8/CycC = biological target: T7, CDK8/CycC (Homo sapiens, UniProt P49336); assay: CDK family panel, ADP-Glo; format: biochemical
T7 construct: ICE Bioscience Inc. (assay service)
Protocol: as §3

VCaP CRPC xenograft = assay: In vivo efficacy, VCaP CRPC mouse model; parameters: species or system mice; conditions: YJZ5118 i.p., q.d., uprosertib p.o., 5x/week, 27 days, compared to vehicle
Protocol: All the animal experiments were performed under an approved animal protocol (Protocol ID: PRO00010006, PI, Arul Chinnaiyan) by the Institutional Animal Care & Use Committee of the University of Michigan. Six- to eight-week-old NSG (Jackson Laboratory) or CB17SCID female (Charles River Laboratory) mice were in a regular SPF housing room prior to cell injection. Briefly, 5 ×10^6 cells of VCaP CRPC were injected […] of NSG or CB17SCID mice, respectively. After tumor size reached approximately 200–400 mm^3, animals were subjected to drug treatment. […] Vehicle consisted of 20% PEG400, 6% Cremophor EL, and 74% PBS solution. Tumors were collected at the end of the experiment for Western blot analysis.

CDK5/p25NCK = biological target: T8, CDK5/p25NCK (Homo sapiens, UniProt Q00535); assay: CDK family panel, ADP-Glo; format: biochemical
T8 construct: ICE Bioscience Inc. (assay service)
Protocol: as §3

CDK9/CycK = biological target: T9, CDK9/CycK (Homo sapiens, UniProt P50750); assay: CDK family panel, ADP-Glo; format: biochemical
T9 construct: ICE Bioscience Inc. (assay service)
Protocol: as §3

VCaP cells [5] = assay: Cell apoptosis assay by flow cytometry; format: cell-based, human; conditions: YJZ5118 at 100 nM
Protocol: Cells were seeded in six-well plates and incubated for 24 h at 37 °C and 5% CO2. Cells were then treated with the indicated concentrations of the tested compounds for 48 h. The treated cells then were collected, centrifuged and washed twice by cold PBS. […] Cell samples were analyzed with flow cytometry (SH800S cell sorter, Sony Biotechnology).

CDK2/CycA2 = biological target: T10, CDK2/CycA2 (Homo sapiens, UniProt P24941); assay: CDK family panel, ADP-Glo; format: biochemical
T10 construct: ICE Bioscience Inc. (assay service)
Protocol: as §3

[6] = system: normal and non-neoplastic cells; assay: Cell viability panel; format: cell-based, human; conditions: 5 days of treatment, compared with sensitive cancer cells
Protocol: as §2

CDK7/CycH/MAT1 = biological target: T11, CDK7/CycH/MAT1 (Homo sapiens, UniProt P50613); assay: CDK family panel, ADP-Glo; format: biochemical
T11 construct: ICE Bioscience Inc. (assay service)
T11 sequence (P50613 whole entry, species assumed): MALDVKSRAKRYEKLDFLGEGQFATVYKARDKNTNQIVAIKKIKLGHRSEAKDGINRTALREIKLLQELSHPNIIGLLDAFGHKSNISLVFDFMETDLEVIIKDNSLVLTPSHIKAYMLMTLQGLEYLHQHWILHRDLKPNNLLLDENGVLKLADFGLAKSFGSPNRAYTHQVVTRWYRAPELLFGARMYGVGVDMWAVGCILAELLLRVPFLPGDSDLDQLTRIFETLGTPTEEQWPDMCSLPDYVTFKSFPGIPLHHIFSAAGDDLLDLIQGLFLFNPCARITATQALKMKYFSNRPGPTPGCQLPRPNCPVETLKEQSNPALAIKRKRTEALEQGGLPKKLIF
T11 sequence (P51946 whole entry partner, species assumed): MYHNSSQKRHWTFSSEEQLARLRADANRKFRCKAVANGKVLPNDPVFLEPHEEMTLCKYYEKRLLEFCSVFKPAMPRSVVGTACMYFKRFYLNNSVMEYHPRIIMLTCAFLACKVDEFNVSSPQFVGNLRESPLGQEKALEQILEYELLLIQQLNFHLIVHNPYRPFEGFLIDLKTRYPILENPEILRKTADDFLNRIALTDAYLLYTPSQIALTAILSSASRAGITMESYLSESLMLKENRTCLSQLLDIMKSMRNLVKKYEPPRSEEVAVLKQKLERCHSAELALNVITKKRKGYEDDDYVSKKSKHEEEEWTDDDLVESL
T11 sequence (P51948 whole entry partner, species assumed): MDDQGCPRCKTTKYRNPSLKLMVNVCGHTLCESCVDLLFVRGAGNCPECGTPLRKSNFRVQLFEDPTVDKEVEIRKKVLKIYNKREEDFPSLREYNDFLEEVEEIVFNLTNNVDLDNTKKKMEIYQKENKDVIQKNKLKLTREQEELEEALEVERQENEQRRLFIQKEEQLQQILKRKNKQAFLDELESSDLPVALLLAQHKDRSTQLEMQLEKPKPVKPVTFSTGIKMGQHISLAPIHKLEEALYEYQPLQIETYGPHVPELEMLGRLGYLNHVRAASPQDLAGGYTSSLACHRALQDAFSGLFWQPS
Protocol: as §3

CDK5/p35NCK = biological target: T12, CDK5/p35NCK (Homo sapiens, UniProt Q00535); assay: CDK family panel, ADP-Glo; format: biochemical
T12 construct: ICE Bioscience Inc. (assay service)
Protocol: as §4

[7] = intravenous, i.v. 2.5 mg/kg (Table S5, intraperitoneal study)

- IC50 (CDK9/CycT1): 4910 nM
- IC50 (CDK16/CycY): > 10000 nM
- pIC50 (TAOK3): < 5.00
- IC50 (CDK6/CycD1): 4480 nM
- AUC(0-t) [3, 7]: 1660 ng·h/mL
- Cmax [3, 7]: 3310 ng/mL
- Tmax [3, 7]: 0.08 h
- clearance [3, 7]: 25.6 mL/min/kg
- half-life [3, 7]: 1.21 h
- bioavailability ([3]; ip, 2.5 mg/kg, i.p. 2.5 mg/kg, read-out: F): 113%
- AUC(0-t) ([3]; ip, i.p. 2.5 mg/kg): 1860 ng·h/mL
- Cmax ([3]; ip, i.p. 2.5 mg/kg): 1580 ng/mL
- Tmax ([3]; ip, i.p. 2.5 mg/kg): 0.33 h
- half-life ([3]; ip, i.p. 2.5 mg/kg): 1.46 h
- clearance ([3]; iv, i.v. 2 mg/kg): 28.3 mL/min/kg
- AUC(0-t) ([3]; iv, i.v. 2.5 mg/kg (Figure 3A)): 1580 ng·h/mL
- Cmax ([3]; iv, i.v. 2.5 mg/kg (Figure 3A)): 2810 ng/mL
- Tmax ([3]; iv, i.v. 2.5 mg/kg (Figure 3A)): 0.08 h
- clearance ([3]; iv, i.v. 2.5 mg/kg (Figure 3A)): 28.3 mL/min/kg
- half-life ([3]; iv, i.v. 2.5 mg/kg (Figure 3A)): 1.29 h
- bioavailability ([3]; po, 10 mg/kg, p.o. 10 mg/kg, read-out: F (oral bioavailability)): 35.5%
- AUC(0-t) ([3]; po, p.o. 10 mg/kg): 2240 ng·h/mL
- Cmax ([3]; po, p.o. 10 mg/kg): 639 ng/mL
- Tmax ([3]; po, p.o. 10 mg/kg): 1.5 h
- half-life ([3]; po, p.o. 10 mg/kg): 2.32 h
- clearance rate, times lower than that of 14h ([3]; i.v.): 4 time
- F (oral bioavailability) ([3]; p.o. 10 mg/kg, 10 mg/kg): 35.5%
- IC50 (CDK2/CycE1): > 10000 nM
- IC50 (CDK15/CycY): > 10000 nM
- IC50 ([4]; Homo sapiens, VCaP, 120 h): < 40 nM
- IC50 ([4]; listed as 14k (YJZ5118)): 23.7 nM
- IC50 (CDK8/CycC): > 10000 nM
- IC50 (CDK5/p25NCK): > 10000 nM
- IC50 (CDK9/CycK): 7160 nM
- IC50 (CDK2/CycA2): > 10000 nM
- IC50 (CDK7/CycH/MAT1): 2260 nM
- IC50 (CDK5/p35NCK): > 10000 nM
SMILES: C=CC(=O)Nc1cc(N(C(=O)NCc2ccccc2)[C@H]2CC[C@H](Nc3ccc(C#N)cn3)CC2)ccc1N1CCC(N(C)C)CC1 [YJZ5118, N-(5-(3-benzyl-1-((1r,4r)-4-((5-cyanopyridin-2-yl)amino)cyclohexyl)ureido)-2-(4-(dimethylamino)piperidin-1-yl)phenyl)acrylamide]
- RNA polymerase II Ser2 phosphorylation after washout [1]: complete loss of phosphorylation observed at 15 h after washout
- cell growth inhibitory effect after washout (VCaP cells [2]): maintained potent antiproliferative activity
- tumor growth (VCaP CRPC xenograft): significant reduction in tumor growth
- apoptosis rate (VCaP cells [5]): 28.5%
- sensitivity of normal and non-neoplastic cells [6]: much lower sensitive
